For orientation: EC50 means the concentration that produces a half-maximal response. The low end stands for a more potent agent, the high end for a less potent agent.

The target of the experiment is G protein-coupled receptor 35 (GPR35) (Homo sapiens, UniProt Q9HC97). Description: GPR35 internalization by flow cytometry in NCM460 cells. Format: cell-based.

SMILES strings stand for the structures.

Sequence of G protein-coupled receptor 35 (GPR35) (Q9HC97 whole entry): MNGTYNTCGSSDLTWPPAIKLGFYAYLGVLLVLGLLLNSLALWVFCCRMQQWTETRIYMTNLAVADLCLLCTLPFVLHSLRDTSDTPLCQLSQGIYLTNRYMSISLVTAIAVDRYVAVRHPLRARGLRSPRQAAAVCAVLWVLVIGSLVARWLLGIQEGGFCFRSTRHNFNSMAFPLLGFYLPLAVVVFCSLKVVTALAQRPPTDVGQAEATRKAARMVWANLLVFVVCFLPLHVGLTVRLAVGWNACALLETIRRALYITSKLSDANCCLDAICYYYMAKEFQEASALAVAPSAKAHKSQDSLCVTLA

As to `O=C(O)c1cc(=O)c2ccccc2[nH]1` [KA, kynurenic acid], the EC50 is 46.2 µM.

Source of the values: publication PMC7982426 (Acta Pharmaceutica Sinica. B, 2020).
